pIC50: −log10 of the molar value.
target: human HPK1 (MAP4K1) (Homo sapiens (Human), UniProt Q92918); test: HPK1 IC50 Assay (TR-FRET peptide phosphorylation); format: biochemical; conditions: 0.15 nM HPK1, 10 μM ATP, 1 μM STK S1 peptide substrate; geometric mean
How it was run: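 Readout: TR-FRET (665 nm/620 nm) after EDTA stop, detecting STK S1 peptide (1 μM) phosphorylation by 0.15 nM HPK1 kinase domain, ATP-pre-activated, at 10 μM ATP over 3 h, 25° C, pH 7.0. IC50s from four-parameter variable-slope fits, normalized to staurosporine and DMSO, averaged geometrically.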

human HPK1 (MAP4K1), sequence (Q92918 17-274): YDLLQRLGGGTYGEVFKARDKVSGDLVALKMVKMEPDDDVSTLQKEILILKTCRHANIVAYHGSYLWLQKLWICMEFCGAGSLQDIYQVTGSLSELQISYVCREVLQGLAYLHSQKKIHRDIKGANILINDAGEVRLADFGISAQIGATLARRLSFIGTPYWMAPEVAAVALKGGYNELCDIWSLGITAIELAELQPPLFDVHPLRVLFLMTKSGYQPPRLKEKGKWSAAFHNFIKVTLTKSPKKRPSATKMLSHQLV

Row | pIC50 | SMILES
1 | 10.10 | CCNC(=O)c1cc(Nc2nc(-c3ccc4c(c3)N([C@H]3C[C@@](C)(N5CCCCC5)C3)C(=O)C4(C)C)cc3ncn(C(C)C)c23)c(F)c(F)c1Cl [Example 288, 2-chloro-5-((6-(3,3-dimethyl-1-((1s,3s)-3-methyl-3-(piperidin-1-yl)cyclobutyl)-2-oxoindolin-6-yl)-3-isopropyl-3H-imidazo[4,5-c]pyridin-4-yl)amino)-N-ethyl-3,4-difluorobenzamide]
2 | 10.15 | CCNC(=O)c1cc(Nc2nc(-c3cc4c(nc3F)C(C)(C)C(=O)N4[C@H]3C[C@@](C)(N4CCCCC4)C3)cc3ncn(C(C)C)c23)c(F)c(F)c1Cl [Example 273, 2-chloro-N-ethyl-3,4-difluoro-5-((6-(5-fluoro-3,3-dimethyl-1-((1s,3s)-3-methyl-3-(piperidin-1-yl)cyclobutyl)-2-oxo-2,3-dihydro-1H-pyrrolo[3,2-b]pyridin-6-yl)-3-isopropyl-3H-imidazo[4,5-c]pyridin-4-yl)amino)benzamide]

same assay, conditions: recombinant HPK1 kinase domain 0.15 nM, 10 μM ATP, 1 μM STK S1 peptide; geometric mean of multiple experiments

Row | pIC50 | SMILES
3 | 10.15 | CCNC(=O)c1cc(Nc2nc(-c3ccc4c(c3)N([C@H]3C[C@@H](N5CCCCC5)C3)C(=O)C43CCOCC3)cc3ncn(C(C)C)c23)ccc1C [Example 22]
4 | 9.70 | CC(=O)N1CCC2(CC1)C(=O)N([C@H]1C[C@@H](N3CCCCC3)C1)c1cc(-c3cc4ncn(C(C)C)c4c(Nc4cc(C(=O)NC5CCC5)c(C)cc4F)n3)ccc12 [Example 76]
5 | 10.00 | CNC(=O)c1cc(Nc2nc(-c3ccc4c(c3)N([C@H]3C[C@@H](N5CCCCC5)C3)C(=O)C43CCN(C(C)=O)CC3)cc3ncn(C(C)C)c23)ccc1C [Example 46]
6 | 9.70 | CCn1cnc2cc(-c3ccc4c(c3)N([C@H]3C[C@@H](N5CCCCC5)C3)C(=O)C4(C)C)nc(Nc3cc(C(=O)NC)c(C)cc3F)c21 [Example 101]
7 | 10.22 | Cc1c(C(=O)NCC(F)F)cc(Nc2nc(-c3cnc4c(c3)N([C@H]3C[C@@](C)(N5CCCCC5)C3)C(=O)C4(C)C)cc3ncn(C(C)C)c23)c(F)c1F [Example 217, N-(2,2-Difluoroethyl)-5-((6-(3,3-dimethyl-1-((1s,3s)-3-methyl-3-(piperidin-1-yl)cyclobutyl)-2-oxo-2,3-dihydro-1H-pyrrolo[3,2-b]pyridin-6-yl)-3-isopropyl-3H-imidazo[4,5-c]pyridin-4-yl)amino)-3,4-difluoro-2-methylbenzamide]
8 | 10.15 | CNC(=O)c1cc(Nc2nc(-c3ccc4c(c3)N([C@H]3C[C@@H](N5CCCC(C)(C)C5)C3)C(=O)C4(C)C)cc3ncn(C4CC4)c23)ccc1C [Example 38]
9 | 10.10 | CCCNC(=O)c1cc(Nc2nc(-c3ccc4c(c3)N([C@H]3C[C@@H](N5CCCCC5)C3)C(=O)C4(C)C)cc3ncn(C(C)C)c23)ccc1C [Example 24]
10 | 10.00 | CC(C)n1cnc2cc(-c3cnc4c(c3)N([C@H]3C[C@@](C)(N5CC6CCC6C5)C3)C(=O)C4(C)C)nc(Nc3cc(C(=O)NC4(C(F)F)CC4)c(Cl)c(F)c3F)c21 (stereo partly shown) [Example 205, 5-((6-(1-((1s,3s)-3-(3-Azabicyclo[3.2.0]heptan-3-yl)-3-methylcyclobutyl)-3,3-dimethyl-2-oxo-2,3-dihydro-1H-pyrrolo[3,2-b]pyridin-6-yl)-3-isopropyl-3H-imidazo[4,5-c]pyridin-4-yl)amino)-2-chloro-N-(1-(difluoromethyl)cyclopropyl)-3,4-difluorobenzamide]
11 | 9.70 | CNC(=O)c1cc(Nc2nc(-c3ccc4c(c3)N([C@H]3C[C@@H](N5CCCCC5)C3)C(=O)C4(C)C)cc3ncn(C(C)C)c23)c(F)cc1F [Example 182]
12 | 10.00 | CC(C)n1cnc2cc(-c3cnc4c(c3)N([C@H]3C[C@@](C)(N5CCCCC5)C3)C(=O)C4(C)C)nc(Nc3cc(C(=O)NC4(CF)CC4)c(Cl)c(F)c3F)c21 [Example 211, 2-Chloro-5-((6-(3,3-dimethyl-1-((1s,3s)-3-methyl-3-(piperidin-1-yl)cyclobutyl)-2-oxo-2,3-dihydro-1H-pyrrolo[3,2-b]pyridin-6-yl)-3-isopropyl-3H-imidazo[4,5-c]pyridin-4-yl)amino)-3,4-difluoro-N-(1-(fluoromethyl)cyclopropyl)benzamide]
13 | 9.70 | Cc1c(C(=O)NC2(C(F)F)CC2)cc(Nc2nc(-c3cnc4c(c3)N([C@H]3C[C@@](C)(N5C[C@H]6COC[C@H]6C5)C3)C(=O)C4(C)C)cc3ncn(C(C)C)c23)c(F)c1F [Example 189, N-(1-(Difluoromethyl)cyclopropyl)-5-((6-(3,3-dimethyl-1-((1S,3s)-3-methyl-3-((3 aR,6aS)-tetrahydro-1H-furo[3,4-c]pyrrol-5(3H)-yl)cyclobutyl)-2-oxo-2,3-dihydro-1H-pyrrolo[3,2-b]pyridin-6-yl)-3-isopropyl-3H-imidazo[4,5-c]pyridin-4-yl)amino)-3,4-difluoro-2-methylbenzamide]
14 | 9.70 | CCNC(=O)c1ccc(F)c(Nc2nc(-c3cnc4c(c3)N([C@H]3C[C@@](C)(N5CCCCC5)C3)C(=O)C4(C)C)cc3ncn(C(C)C)c23)c1 [Example 223, 3-((6-(3,3-Dimethyl-1-((1s,3s)-3-methyl-3-(piperidin-1-yl)cyclobutyl)-2-oxo-2,3-dihydro-1H-pyrrolo[3,2-b]pyridin-6-yl)-3-isopropyl-3H-imidazo[4,5-c]pyridin-4-yl)amino)-N-ethyl-4-fluorobenzamide]
15 | 10.30 | CCNC(=O)c1cc(Nc2nc(-c3cnc4c(c3)N(C3CC(C)(N5CCC6C[C@@H]6C5)C3)C(=O)C4(C)C)cc3ncn(C(C)C)c23)c(F)c(F)c1Cl (stereo partly shown) [Example 252, 5-((6-(1-((1s,3s)-3-(3-azabicyclo[4.1.0]heptan-3-yl)-3-methylcyclobutyl)-3,3-dimethyl-2-oxo-2,3-dihydro-1H-pyrrolo[3,2-b]pyridin-6-yl)-3-isopropyl-3H-imidazo[4,5-c]pyridin-4-yl)amino)-2-chloro-N-ethyl-3,4-difluorobenzamide]
16 | 10.10 | CC(C)n1cnc2cc(-c3cnc4c(c3)N([C@H]3C[C@@](C)(N5CCC6CC6C5)C3)C(=O)C4(C)C)nc(Nc3cc(C(=O)NC4(C(F)F)CC4)c(Cl)c(F)c3F)c21 (stereo partly shown) [Example 225, 5-((6-(1-((1s,3s)-3-(3-Azabicyclo[4.1.0]heptan-3-yl)-3-methylcyclobutyl)-3,3-dimethyl-2-oxo-2,3-dihydro-1H-pyrrolo[3,2-b]pyridin-6-yl)-3-isopropyl-3H-imidazo[4,5-c]pyridin-4-yl)amino)-2-chloro-N-(1-(difluoromethyl)cyclopropyl)-3,4-difluorobenzamide]
17 | 9.70 | Cc1c(C(=O)NC2(C(F)F)CC2)cc(Nc2nc(-c3cnc4c(c3)N([C@H]3C[C@@](C)(N5CCC(F)C6(CC6)C5)C3)C(=O)C4(C)C)cc3ncn(C(C)C)c23)c(F)c1F (stereo partly shown) [Example 187, N-(1-(Difluoromethyl)cyclopropyl)-3,4-difluoro-5-((6-(1-((1s,3s)-3-(8-fluoro-5-azaspiro[2.5]octan-5-yl)-3-methylcyclobutyl)-3,3-dimethyl-2-oxo-2,3-dihydro-1H-pyrrolo[3,2-b]pyridin-6-yl)-3-isopropyl-3H-imidazo[4,5-c]pyridin-4-yl)amino)-2-methylbenzamide]
18 | 10.00 | CNC(=O)c1cc(Nc2nc(-c3ccc4c(c3)N([C@H]3C[C@@H](N5CCCCC5)C3)C(=O)C4(C)C)cc3ncn(C4CC4)c23)ccc1Cl [Example 40]
19 | 10.15 | Cc1c(C(=O)NC2(C(F)F)CC2)cc(Nc2nc(-c3cc4c(nc3F)C(C)(C)C(=O)N4[C@H]3C[C@@](C)(N4CCCCC4)C3)cc3ncn(C(C)C)c23)c(F)c1F [Example 195, N-(1-(Difluoromethyl)cyclopropyl)-3,4-difluoro-5-((6-(5-fluoro-3,3-dimethyl-1-((1s,3s)-3-methyl-3-(piperidin-1-yl)cyclobutyl)-2-oxo-2,3-dihydro-1H-pyrrolo[3,2-b]pyridin-6-yl)-3-isopropyl-3H-imidazo[4,5-c]pyridin-4-yl)amino)-2-methylbenzamide]
20 | 10.00 | CNC(=O)c1cc(Nc2nc(-c3ccc4c(c3)N([C@H]3C[C@@H](N5CCCCC5)C3)C(=O)C43CCN(C(=O)OC)CC3)cc3ncn(C4CC4)c23)ccc1C [Example 50]
21 | 10.00 | Cc1ccc(Nc2nc(-c3ccc4c(c3)N([C@H]3C[C@@H](N5CCCCC5)C3)C(=O)C4(C)C)cc3ncn(C(C)C)c23)cc1C(=O)NC(C)C [Example 136, 5-((6-(3,3-dimethyl-2-oxo-1-((1s,3s)-3-(piperidin-1-yl)cyclobutyl)indolin-6-yl)-3-isopropyl-3H-imidazo[4,5-c]pyridin-4-yl)amino)-N-isopropyl-2-methylbenzamide]
22 | 10.00 | CNC(=O)c1cc(Nc2nc(-c3ccc4c(c3)N([C@H]3C[C@@H](N5CCCCC5)C3)C(=O)C43CCN(C(=O)C4(C)CCC4)CC3)cc3ncn(C4CC4)c23)ccc1C [Example 149]
23 | 9.70 | CC(=O)N1CCC2(CC1)C(=O)N([C@H]1C[C@@H](N3CCCCC3)C1)c1cc(-c3cc4ncn(C(C)C)c4c(Nc4cc(C(=O)NC(C)C)c(F)cc4F)n3)ccc12 [Example 180]
24 | 10.00 | CC[C@H](C)n1cnc2cc(-c3ccc4c(c3)N([C@H]3C[C@@H](N5CCC[C@@H](F)C5)C3)C(=O)C4(C)C)nc(Nc3cc(C(=O)NC)c(C)cc3F)c21 [Example 113]

Row | SMILES | pIC50
25 | CC(C)n1cnc2cc(-c3cnc4c(c3)N([C@H]3C[C@@](C)(N5CCCCC5)C3)C(=O)C4(C)C)nc(Nc3cc(C(=O)NC4(C(F)(F)F)CC4)c(Cl)c(F)c3F)c21 [Example 204, 2-Chloro-5-((6-(3,3-dimethyl-1-((1s,3s)-3-methyl-3-(piperidin-1-yl)cyclobutyl)-2-oxo-2,3-dihydro-1H-pyrrolo[3,2-b]pyridin-6-yl)-3-isopropyl-3H-imidazo[4,5-c]pyridin-4-yl)amino)-3,4-difluoro-N-(1-(trifluoromethyl)cyclopropyl)benzamide] | 9.70
